Read-outs that look alike come from different tables or passages of the source.
Key:
human naive CD4T cells [1] = format: cell-based; conditions: for IFNγ+IL-4− cells (%) / ratio of IFNγ-producing cells (in words): Th1 differentiation inducing conditions; for IFNγ+IL-4− cells (%): crude human CD4T cells; for ratio of IFNγ-producing cells (in words): summary of Tables 4 and 5
human naive CD4T cells [2] = assay: Human Th2 differentiation induction culture with intracellular IFNγ/IL-4 staining and flow cytometry; format: cell-based; conditions: for ratio of IFNγ-producing cells (in words) / ratio of IL-4-producing cells (in words) / IFNγ+IL-4− cells (%) / IFNγ−IL-4+ cells (%): Th2 differentiation inducing conditions; for IFNγ+IL-4− cells (%) / IFNγ−IL-4+ cells (%): crude human CD4T cells; for IFNγ+IL-4− cells (%): control 18.1; for IFNγ−IL-4+ cells (%): control 19.4
Description: Separation of human naive CD4T cells was performed using an automated magnetic cell sorter (autoMACS Miltenyi Biotec GmbH) by the method described below. Whole blood was drawn by venous paracentesis from six healthy donor volunteers at 24 to 50 years of age. 50 ml of human peripheral blood was diluted two fold with 50 ml of a D-PBS solution (Sigma-Aldrich Inc). Next, 25 ml of the above-described diluted peripheral blood was gradually overlain in four centrifugal tubes containing 12.5 ml of Ficoll-Paque Plus (Amersham Biosciences), and the tubes were centrifuged using a centrifuge at room temperature and 950 G for 30 minutes. After centrifugation, lymphocytes present in the intermediate layer between the Ficoll-Paque and the supernatant were recovered, and suspended in a D-PBS solution containing 3% fetal calf serum (FCS: JRH Biosiences) and 2 mM EDTA (Dojindo Inc) (hereinafter, referred to as MACS buffer); the suspension was centrifuged using a centrifuge at 4° C. and 500 G for 5 minutes to sediment the lymphocytes. The resulting lymphocyte pellet was again suspended in MACS buffer; the suspension was centrifuged at 500 G for 5 minutes to sediment the lymphocytes, and twice washed to yield a lymphocyte pellet. This cell pellet was again suspended in the MACS buffer to obtain a cell density of 1×10^8 cells/ml. To 1×10^7 lymphocytes, 2 μL of an FITC-labeled anti-human CD8 antibody (BD BioScience Pharmingen) and 2 μL of an FITC-labeled anti-human CD45RO antibody (BD BioScience Pharmingen) were added, and they were reacted on ice for 30 minutes to thereby bind each antibody. The MACS buffer was added to the reaction mixture, and the mixture was centrifuged and twice washed at 4° C. Next, 10 μL of anti-FITC microbeads (Miltenyi Biotec GmbH) was added to 1×10^7 lymphocytes coupled with each antibody, and they were reacted with each other on ice for 15 minutes. The MACS buffer was added to the reaction mixture, and the mixture was centrifuged and twice washed at 4° C. The cell pellet obtained was suspended in the MACS buffer to obtain a cell density of 5×10^7/ml, and the suspension was passed through a nylon mesh (Abe Kagaku), after which a CD8- and CD45RO-double-negative fraction was recovered using an automated magnetic cell sorter (AutoMACS Miltenyi Biotec GmbH) to thereby separate human naive CD4T cells, which were supplied for the following experiments.
Under Th2 differentiation conditions, the cells were stimulated on a plate having the anti-CD3 antibody immobilized thereon for 2 days in a differentiation induction medium containing 50 U/ml (final concentration) IL-2 (Immunace, Shionogi & Co., Ltd.), 1 ng/ml (final concentration) IL-4, and 5 μg/ml (final concentration) anti-IFNγ antibody (Pharmingen, and the cells were transferred to a plate without immobilized anti-CD3 antibody, and cultured for 5 days. Furthermore, in the case of Th2 cell differentiation, following the 2 days, 5 days of differentiation induction was performed in two consecutive cycles.
Unless otherwise specified, the final concentrations of CW, LAM/LM, PIM2 and PIM6 were adjusted to 100 μg/ml.
Cells undergoing Th1 differentiation induction (Th1-induced cells) and cells undergoing Th2 differentiation induction (Th2-induced cells) were cultured and stimulated in the presence of Monensin (Sigma) in a medium supplemented with PMA (Phorbol-12-Myristate-13-Acetate, Sigma-Aldrich) and Ionomycin (Calbiochem) for 4 hours. After stimulation, intracellular staining was performed by the method described below, the cells were analyzed using a cell analyzer (FACScalibur), and the degree of Th1 or Th2 differentiation induction was evaluated. […]

[3] = 10 μg/ml, Table 4 test, vehicle 51.2
[4] = 30 μg/ml, Table 5 test, vehicle 60.6
[5] = 100 μg/ml, Table 4 test, vehicle 51.2
[6] = 100 μg/ml, Table 5 test, vehicle 60.6

Substance | IFNγ+IL-4− cells (%) (human naive CD4T cells [1]; [3]) | IFNγ+IL-4− cells (%) (human naive CD4T cells [1]; [4]) | IFNγ+IL-4− cells (%) (human naive CD4T cells [1]; [5]) | IFNγ+IL-4− cells (%) (human naive CD4T cells [1]; [6]) | ratio of IFNγ-producing cells (in words) (human naive CD4T cells [1]) | ratio of IFNγ-producing cells (in words) (human naive CD4T cells [2]; FIG. 13 and Table 6) | ratio of IL-4-producing cells (in words) (human naive CD4T cells [2]; FIG. 13 and Table 6) | IFNγ+IL-4− cells (%) (human naive CD4T cells [2]; 3 μg/ml) | IFNγ−IL-4+ cells (%) (human naive CD4T cells [2]; 3 μg/ml) | IFNγ+IL-4− cells (%) (human naive CD4T cells [2]; 30 μg/ml) | IFNγ−IL-4+ cells (%) (human naive CD4T cells [2]; 30 μg/ml) | number of IFNγ-producing cells (in words) (human naive CD4T cells [1]; Th1 differentiation conditions, T cells from six healthy human volunteers, 100 μg/ml, FIGS. 8 and 9) | potential to induce Th1 differentiation (human naive CD4T cells [1]; Th1 differentiation induction, 100 μg/ml, FIG. 7B) | number of IL-4-producing cells (in words) (human naive CD4T cells [2]; Th2 differentiation conditions, T cells from six healthy human volunteers, 100 μg/ml, FIGS. 8 and 9) | ratio of IFNγ-producing cells (in words) (human naive CD4T cells [2]; 100 μg/ml, FIG. 7B) | ratio of IL-4-producing cells (in words) (human naive CD4T cells [2]; 100 μg/ml, FIG. 7B)
lipomannan [LM] | 56.7 | 70.5 | 67.9 | 69.1 | significantly increased | dose-dependently increased | dose-dependently suppressed | 29.5 | 14.3 | 38.4 | 8.8 |  |  |  |  | 
lipoarabinomannan [LAM] | 55.9 | 63.1 | 55.4 | 67.6 | significantly increased | dose-dependently increased | dose-dependently suppressed | 26.9 | 17.2 | 34.8 | 11.9 |  |  |  |  | 
cardiolipin [reference compound] |  |  |  |  |  |  |  |  |  |  |  | did not increase | did not exhibit the potential to induce Th1 differentiation | increased | did not increase | increased

— US7928088B2, “Th1 cell differentiation accelerator” (priority 2006, dated 2011)
